Test [1] relates to prostate cancer cell line (LNCap). Kind of test: Cell growth inhibition assay (Celltiter Glo). In kind it is cell-based. The conditions noted are these: Homo sapiens, LNCap cells, 120 hours incubation. The method, then: Cancer cell inhibitory effects by the compounds of the Examples were evaluated as follows. The prostate cancer cell line (LNCap) used was cultured under the condition according to the vendor's recommendation. LNCap was dispensed into a 96-well plate at 10,000 cells/well. After incubation under the condition of 37° C. and 5% CO2 for 24 hours, the Example compounds of 50 mM DMSO stock were diluted to various concentrations and treated to the 96-well plate containing cells. After treatment of the Example compounds, LNCap cells were incubated in an incubator (37° C., 5% CO2) for 120 hours. After each incubation time, the 96-well plate was observed under a microscope to record the presence or absence of drug precipitation and specificities, and the 96-well plate was kept at room temperature for 30 minutes. Then, after addition of 20 μL of Celltiter Glo solution, the 96-well plate was well shaken for 30 minutes. The growth inhibitory activity was measured on microLUMA LB96P (BERTHOLD) instrument using Glo-vial protocol. As a negative control, a 96 well-plate in which culture medium was added but cells were not plated was used. As a positive control, a 96 well-plate in which cells were plated and 0.1% DMSO instead of drugs was added was used. The results of growth inhibitory effects of the Example compounds on prostate cancer cell line are represented in Table 2.
(In general: Cellular ATP, detected with luciferase, serves as a proxy for viable cell number.)

The target in the next test is T1, STAT3 (Homo sapiens, UniProt P40763).
T1 construct: endogenous in cells; host or cells: LNCaP (human prostate cancer) stably carrying pSTAT3-TA-luc reporter plasmid
T1 sequence (P40763 whole entry): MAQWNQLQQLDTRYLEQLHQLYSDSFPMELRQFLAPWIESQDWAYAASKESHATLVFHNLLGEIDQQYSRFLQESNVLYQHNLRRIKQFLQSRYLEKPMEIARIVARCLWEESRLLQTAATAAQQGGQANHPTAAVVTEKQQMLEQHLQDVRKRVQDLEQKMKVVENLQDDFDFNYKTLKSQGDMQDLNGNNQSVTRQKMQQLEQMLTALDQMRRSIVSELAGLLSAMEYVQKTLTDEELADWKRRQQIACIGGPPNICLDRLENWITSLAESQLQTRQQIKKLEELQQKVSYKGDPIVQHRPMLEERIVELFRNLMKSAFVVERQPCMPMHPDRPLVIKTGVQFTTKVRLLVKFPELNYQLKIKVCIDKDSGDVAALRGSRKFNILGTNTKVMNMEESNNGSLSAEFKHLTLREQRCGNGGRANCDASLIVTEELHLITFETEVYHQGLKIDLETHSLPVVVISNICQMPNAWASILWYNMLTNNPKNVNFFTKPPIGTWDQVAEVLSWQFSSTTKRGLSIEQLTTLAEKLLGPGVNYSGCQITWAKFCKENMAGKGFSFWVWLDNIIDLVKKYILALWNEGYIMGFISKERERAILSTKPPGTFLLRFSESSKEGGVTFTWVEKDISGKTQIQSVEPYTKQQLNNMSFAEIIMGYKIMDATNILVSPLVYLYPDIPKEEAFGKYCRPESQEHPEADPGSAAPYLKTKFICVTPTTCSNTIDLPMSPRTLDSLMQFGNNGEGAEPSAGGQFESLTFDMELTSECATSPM
The test is described as follows: STAT3 activation inhibition assay (reporter gene assay, LNcaP stable cell line, IL-6 stimulated). The test is classed as cell-based. The following applies: LNcaP stable cell line [plasmid STAT3-TA-luc], IL-6 10 ng/mL, 48 hours, luciferase activity; read-out: IC50 (μM) pSTAT3. Here is the method: Cancer cell lines used for evaluating the compounds of the Examples were purchased from ATCC (American Type Culture Collection) or KCLB (Korean Cell Line Bank), and cultured according to the vendor's recommendation. The human prostate cancer cell line stably expressing the STAT3 promoter (LNcaP stable cell line [plasmid STAT3-TA-luc])—which was prepared to evaluate the inhibitory effect of the compounds of the Examples against dimerization of STAT3—was cultured in RPMI1640 (Cat no. 11875, Gibco), 10% fetal bovine serum (Cat no. SH30071.03, Hyclone) and 150 μg/mL G418 solution (Cat no. 04 727 894 001, Roche).
The reporter gene assay of LNcap stable cell line was carried out by the use of RPMI 1640 medium containing 3% DCC-FBS (without G-418). The cell line was dispensed into two (2) white 96-well plates at 30,000 cells/well/50 μL. The cell line was incubated for 24 hours under the condition of 37° C. and 5% CO2, and then the Example compounds of 50 mM DMSO stock were diluted to various concentrations and treated to two (2) white 96-well plates containing cells. Then, IL-6 was treated to a final concentration of 10 ng/mL. After the treatment of Example compounds and IL-6, the cells were cultured for 48 hours under the condition of 37° C. and 5% CO2. After 48 hours, the 96-well plates were observed under a microscope to record the presence or absence of drug precipitation and specificities, and the 96-well plates were kept at room temperature for 30 minutes. Then, in the case of the first 96-well plate, the culture medium on the plate was removed to measure the luciferase activity, and treated with passive lysis buffer at 20 µL/well and shaken for 30 minutes. The luciferase activity was measured on microLUMA LB96P (BERTHOLD) or Centro XS LB 960 (BERTHOLD) instrument using Luciferase assay system (Cat No. E1501, Promega Corporation). In the case of the second 96-well plate, 20 μL of Glo-mix solution was added to measure cytotoxicity by the compounds of the Examples, and the plate was well shaken for 10 minutes and analyzed on microLUMA LB96P (BERTHOLD) instrument using Glo-vial protocol. As a negative control, a 96 well-plate in which culture medium was added but cells were not plated was used. As a positive control, a 96 well-plate in which cells were plated and 0.1% DMSO and culture medium containing stimulation were added was used.
The results of evaluating the inhibitory effects of the compounds of the Examples against dimerization of STAT3 and STAT1 via STAT3 and STAT1 reporter gene assay are represented in Table 1.
Background: Reporter assays use an easily measured gene product as a stand-in for the process of interest.

Data on 28 molecules can be found in US12404249B2, “Heterocyclic derivatives and use thereof” (C&C RESEARCH LABORATORIES, priority 2018, dated 2025).

For orientation: IC50 means the point on the concentration scale where inhibition reaches its midpoint.

`O=[N+]([O-])c1ccc(CCNc2cc(Cl)nc3cccc(F)c23)cc1` [Example 29, 2-chloro-5-fluoro-N-(4-nitrophenethyl)quinolin-4-amine]: the IC50 came to 2.5 µM in test [1] and 0.64 µM on STAT3.

As to `O=[N+]([O-])c1ccc(CCNc2cc(Cl)nc3cc(F)ccc23)cc1` [Example 30, 2-chloro-7-fluoro-N-(4-nitrophenethyl)quinolin-4-amine], the figures for the IC50 (in test [1]; on STAT3) were 7 µM and 2.2 µM, respectively.

With `O=[N+]([O-])c1ccc(CCNc2cc(Cl)nc3c(F)cccc23)cc1` [Example 31, 2-chloro-8-fluoro-N-(4-nitrophenethyl)quinolin-4-amine], the IC50 in test [1] was found to be 0.21 µM; at STAT3, 0.12 µM.

`O=[N+]([O-])c1ccc(CCNc2cc(Cl)nc3ccc(Cl)cc23)cc1` [Example 32, 2,6-dichloro-N-(4-nitrophenethyl)quinolin-4-amine]: the IC50 turned out to be 33.8 µM in test [1] and 3.3 µM at STAT3.

Take `O=[N+]([O-])c1ccc(CCNc2cc(Cl)nc3ccc(Oc4ccccc4)cc23)cc1` [Example 33, 2-chloro-N-(4-nitrophenethyl)-6-phenoxyquinolin-4-amine]: the IC50 in test [1] is greater than 50 µM; at STAT3, 6 µM.

As to `O=C(c1ccccc1)c1ccc2nc(Cl)cc(NCCc3ccc([N+](=O)[O-])cc3)c2c1` [Example 34, (2-chloro-4-((4-nitrophenethyl)amino)quinolin-6-yl)(phenyl)methanone], the IC50 in test [1] stood at 15.7 µM; at STAT3 it was 6.9 µM.

Take `O=[N+]([O-])c1ccc(CCNc2cc(Cl)nc3ccc(O)cc23)cc1` [Example 35, 2-chloro-4-((4-nitrophenethyl)amino)quinolin-6-ol]: the IC50 in test [1] came to 7.3 µM; at STAT3, 2.3 µM.

Regarding `O=[N+]([O-])c1ccc(CCNc2ncnc3ccccc23)cc1` [Example 36, N-(4-nitrophenethyl)quinazolin-4-amine], the results for the IC50 (in test [1]; at STAT3) were 0.093 µM and 0.023 µM, respectively.

As for `CCOC(=O)COc1ccc2nc(Cl)cc(NCCc3ccc([N+](=O)[O-])cc3)c2c1` [Example 37, ethyl 2-((2-chloro-4-((4-nitrophenethyl)amino)quinolin-6-yl)oxy)acetate], the IC50 stood at 10.6 µM in test [1] and 20.3 µM on STAT3.

With `CS(=O)(=O)Nc1ccc(CCNc2ncnc3ccccc23)cc1` [Example 38, N-(4-(2-(quinazolin-4-ylamino)ethyl)phenyl)methanesulfonamide], the IC50 in test [1] stood at 0.18 µM; at STAT3, 0.17 µM.

Turning to `NC(=O)COc1ccc2nc(Cl)cc(NCCc3ccc([N+](=O)[O-])cc3)c2c1` [Example 39, 2-((2-chloro-4-((4-nitrophenethyl)amino)quinolin-6-yl)oxy)acetamide], the IC50 (in test [1]; at STAT3) was greater than 50 µM in each case.

Take `O=C(O)c1ccc2nc(Cl)cc(NCCc3ccc([N+](=O)[O-])cc3)c2c1` [Example 40, 2-chloro-4-((4-nitrophenethyl)amino)quinolin-6-carboxylic acid]: the IC50 (in test [1]; on STAT3) was greater than 50 µM in each case.

Turning to `NC(=O)c1ccc2nc(Cl)cc(NCCc3ccc([N+](=O)[O-])cc3)c2c1` [Example 41, 2-chloro-4-((4-nitrophenethyl)amino)quinolin-6-carboxamide], the IC50 in test [1] is greater than 50 µM; at STAT3, 9.8 µM.

As to `O=C(c1ccc2nc(Cl)cc(NCCc3ccc([N+](=O)[O-])cc3)c2c1)N1CCOCC1` [Example 42, (2-chloro-4-((4-nitrophenethyl)amino)quinolin-6-yl)(morpholino)methanone], the IC50 (in test [1]; on STAT3) was greater than 50 µM throughout.

On to `O=C(O)COc1ccc2nc(Cl)cc(NCCc3ccc([N+](=O)[O-])cc3)c2c1` [Example 43, 2-((2-chloro-4-((4-nitrophenethyl)amino)quinolin-6-yl)oxy)acetic acid], for which the IC50 (in test [1]; at STAT3) was greater than 50 µM throughout.

Regarding `NNC(=O)c1ccc2nc(Cl)cc(NCCc3ccc([N+](=O)[O-])cc3)c2c1` [Example 44, 2-chloro-4-((4-nitrophenethyl)amino)quinolin-6-carbohydrazide], the IC50 (in test [1]; on STAT3) was greater than 50 µM throughout.

For the molecule `CS(=O)(=O)Nc1ccc(CCNc2cc(Cl)nc3c(F)cccc23)cc1` [Example 45, N-(4-(2-((2-chloro-8-fluoroquinolin-4-yl)amino)ethyl)phenyl)methanesulfonamide], the IC50 (in test [1]; at STAT3) was 13.1 µM throughout.

With `CS(=O)(=O)Nc1ccc(CCNc2ccnc3c(F)cccc23)cc1` [Example 46, N-(4-(2-((8-fluoroquinolin-4-yl)amino)ethyl)phenyl)methanesulfonamide], the IC50 in test [1] is 18.9 µM; on STAT3 it was 33.7 µM.

On to `O=[N+]([O-])c1ccc(CCNc2nc(Cl)nc3[nH]cnc23)cc1` [Example 47, 2-chloro-N-(4-nitrophenethyl)-9H-purin-6-amine], for which the IC50 (in test [1]; on STAT3) was greater than 50 µM in each case.

Consider `O=[N+]([O-])c1ccc(CCNc2nc(C(F)(F)F)nc3ccccc23)cc1` [Example 48, N-(4-nitrophenethyl)-2-(trifluoromethyl)quinazolin-4-amine], for which the figures for the IC50 (in test [1]; at STAT3) were 14.2 µM and 7.3 µM, respectively.

For `O=[N+]([O-])c1ccc(CCNc2cc(C(F)(F)F)nc3ccccc23)cc1` [Example 49, N-(4-nitrophenethyl)-2-(trifluoromethyl)quinolin-4-amine], the IC50 stood at 14.1 µM in test [1] and 5.6 µM on STAT3.

`O=[N+]([O-])c1ccc(CCNc2nc(F)nc3[nH]cnc23)cc1` [Example 50, 2-fluoro-N-(4-nitrophenethyl)-9H-purin-6-amine]: the figures for the IC50 (in test [1]; on STAT3) were 23.1 µM and 13.9 µM, respectively.

Turning to `CNc1cc(NCCc2ccc([N+](=O)[O-])cc2)c2ccccc2n1` [Example 51, N^2-methyl-N^4-(4-nitrophenethyl)quinolin-2,4-diamine 2,2,2-trifluoroacetate], the figures for the IC50 (in test [1]; on STAT3) were 27.7 µM and 24.1 µM, respectively.

For `CS(=O)(=O)Nc1ccc(CCNc2cc(C(F)(F)F)nc3ccccc23)cc1` [Example 52, N-(4-(2-((2-(trifluoromethyl)quinolin-4-yl)amino)ethyl)phenyl)methanesulfonamide], the IC50 turned out to be 6.6 µM in test [1] and 3.1 µM at STAT3.

Consider `CS(=O)(=O)Nc1ccc(CCNc2nc(C(F)(F)F)nc3ccccc23)cc1` [Example 53, N-(4-(2-((2-(trifluoromethyl)quinazolin-4-yl)amino)ethyl)phenyl)methanesulfonamide], for which the IC50 in test [1] amounted to 15.7 µM; on STAT3 it was 3 µM.

In the case of `O=[N+]([O-])c1ccc(CCNc2ncnc3ccc(-c4ccc(Cl)cc4Cl)cc23)cc1` [Example 54, 6-(2,4-dichlorophenyl)-N-(4-nitrophenethyl)quinazolin-4-amine], the IC50 in test [1] turned out to be 14.1 µM; on STAT3, 11 µM.

For `O=[N+]([O-])c1ccc(CCNc2cc(Cl)nc3ccc(-c4ccc(Cl)cc4Cl)cc23)cc1` [Example 55, 2-chloro-6-(2,4-dichlorophenyl)-N-(4-nitrophenethyl)quinolin-4-amine], the IC50 (in test [1]; on STAT3) was greater than 50 µM in each case.

With `CS(=O)(=O)Nc1ccc(CCNc2ncnc3ccc(-c4ccc(Cl)cc4Cl)cc23)cc1` [Example 56, N-(4-(2-((6-(2,4-dichlorophenyl)quinazolin-4-yl)amino)ethyl)phenyl)methanesulfonamide], the IC50 in test [1] was 13.9 µM; at STAT3, 6.6 µM.
